Consider two molecules from patent publication US20240156742A1, “TARGETED MULTIFUNCTIONAL NANOSTRUCTURED LIPID CARRIERS” (TECHNION RESEARCH & DEVELOPMENT FOUNDATION LIMITED, priority 2021, published 2024).

The nature of data set [1]: Kinetic profile of in vitro drug release by dialysis. Type of data set: physicochemical. The following applies: dialysis in PBS pH 7.4 with 0.1% Tween 80, 37° C., 72 hr; burst within first 10 hr. The protocol:
The kinetics of in vitro release of drugs from the loaded NPs and free drugs were studied by the dialysis method. One (1) ml of drug-loaded NPs or free drugs (both systems in DW) were placed in dialysis bags (molecular weight cutoff of 3.5 kDa, Sigma-Aldrich, Merck, Rehovot, Israel) and incubated in 30 ml volume of plasma simulating buffer comprising phosphate-buffered saline (PBS, 10 mM, pH 7.4) containing 0.1% tween 80 for 72 hr, at 37° C., with continuous gentle agitation. At defined time intervals (0, 2, 4, 6, 10, 23, 29, 36, 47, 58, 72 hr), the dialysate was collected and replaced by the same volume of fresh release buffer. To calculate the cumulative release of drugs, the dialysates from each time point were freeze-dried, dissolved in EtOH or DMSO for CTX or ENZ extraction, respectively, filtered through 0.45 μm membrane, and quantified using RP-HPLC, as described above. The results are presented as means of two experiments±SE.
The kinetics of in vitro release of CTX and ENZ from NPs were assessed by dialysis in a large volume of a plasma-simulating buffer for 72 hr at 37° C., with continuous mixing. […] At defined time intervals, the dialysate was replaced with a fresh buffer, and the drug was quantified using RP-HPLC. […]

Data set [2] relates to LNCaP target cells (PSMA-positive PC cell line). Put plainly: XTT growth inhibition assay, LNCaP. It counts as cell-based. The following applies: Homo sapiens, free drug in growth medium for 72 hr. The protocol:
(§1) The selective growth inhibition of CTX-loaded NPs was studied in LNCaP target cells and PC-3 non-target cells, using an XTT-based colorimetric cell proliferation kit as previously described. The preparation of CTX-loaded NPs was performed as described and had undergone 24 hr dialysis before cell exposure, to simulate the conditions in the human body. The dialysis was conducted as described in the “Kinetic profile of in vitro drug release” in the materials and methods section, but with the use of 10% FBS to capture the released CTX. Prior to the experiment, 96-well plates were coated with poly-L-Lysine before cell plating. LNCaP and PC-3 cells were seeded in 96-well plates at 5×10^4 and 2.5×10^4 cells/ml, respectively, and incubated overnight to allow for cell attachment. Following exposure of cells to CTX-loaded NPs at increasing CTX concentrations of 0.001-100 nM for 24 hr, cells were incubated for additional 72 hr with fresh growth medium. Cellular growth inhibition was determined by adding the XTT reagent. Data were plotted using a nonlinear curve fitting of a sigmoidal model (Hill1) with OriginPro 9.0 to obtain a dose-response curve according to Equation (3): […]
In general terms: Tetrazolium assays rely on reduction of a dye to a coloured formazan, in cell work by metabolically active cells.

Data set [3] relates to PC-3 non-target cells (PSMA-negative PC cell line). Put plainly: XTT growth inhibition assay, PC-3. Type of data set: cell-based. The following applies: Homo sapiens; free drug in growth medium for 72 hr. The method, then:
as §1

The subject of another data set is LNCaP cells. The following applies: exposure for 48 hr; cited from earlier work.

As for `CNC(=O)c1ccc(N2C(=S)N(c3ccc(C#N)c(C(F)(F)F)c3)C(=O)C2(C)C)cc1F` [unencapsulated ENZ, Enzalutamide], the “in vitro release profile” value in data set [1] is “burst release”.
Broadly, the IC50 is the concentration that inhibits the measured activity by half. In the case of `CO[C@H]1C(=O)[C@]2(C)[C@@H](OC)C[C@H]3OC[C@@]3(OC(C)=O)[C@H]2[C@H](OC(=O)c2ccccc2)[C@]2(O)C[C@H](OC(=O)[C@H](O)[C@@H](NC(=O)OC(C)(C)C)c3ccccc3)C(C)=C1C2(C)C` [free CTX, Cabazitaxel], the “in vitro release profile” value in data set [1] is “burst release”. For the same molecule, the IC50 is 0.25 ± 0.04 nM in data set [2], 0.18 ± 0.04 nM in data set [3] and 2.6 to 3.1 nM in the data set with LNCaP cells.
